Data as given in paper PMC8718758, “Using Unnatural Protein Fusions to Engineer a Coenzyme Self-Sufficiency System for D-Phenyllactic Acid Biosynthesis in Escherichia coli” (Frontiers in Bioengineering and Biotechnology, 2021).

Target: T1, LfD-LDH (Limosilactobacillus fermentum, UniProt A0ABF7R291)
T1 construct: gene LAF_0632; gene cloned BamHI/XhoI in pET28a, expressed in E. coli BL21(DE3) (strain CP101); gene primers only in supplement
Test: enzymatic conversion of phenylpyruvate to D-phenyllactic acid
Assay type: biochemical
Details: co-substrate phenylpyruvate, pH 7, 35 °C; paper says only D-LDH here, LfD-LDH inferred; enzyme purity not described

T1 sequence (A0ABF7R291 1-332): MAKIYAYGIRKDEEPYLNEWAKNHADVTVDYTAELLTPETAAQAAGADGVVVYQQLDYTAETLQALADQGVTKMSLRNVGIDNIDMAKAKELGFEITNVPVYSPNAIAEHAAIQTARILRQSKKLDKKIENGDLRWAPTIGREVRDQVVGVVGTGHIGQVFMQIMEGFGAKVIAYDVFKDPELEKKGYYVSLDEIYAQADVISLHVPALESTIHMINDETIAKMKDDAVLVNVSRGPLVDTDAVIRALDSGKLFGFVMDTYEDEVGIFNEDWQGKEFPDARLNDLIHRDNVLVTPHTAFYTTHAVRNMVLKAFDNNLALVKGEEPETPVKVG

NC(=O)C1=CN([C@@H]2O[C@H](COP(=O)(O)OP(=O)(O)OC[C@H]3O[C@@H](n4cnc5c(N)ncnc54)[C@H](O)[C@@H]3O)[C@@H](O)[C@H]2O)C=CC1 [NADH]
enzymatic conversion of phenylpyruvate to D-phenyllactic acid: NADH-dependent D-LDH must rely on NADH to catalyze the conversion of PPA to D-PLA
